In US8940785B2, “Association between 4-{3-[cis-hexahydrocyclopenta[c]pyrrol-2(1H)-yl]propoxy}benzamide and an acetylcholinesterase inhibitor, and pharmaceutical compositions containing it” (priority 2011, dated 2015):
Where a name gives a salt, the structure may show the parent alone. Read-outs that look alike come from different tables or passages of the source.

Tests used:
[1] = tested on: middle-aged (14-15 months old) C57B16 mouse; assay: contextual serial discrimination test (model of episodic memory); assay type: in vivo; conditions: chronic treatment for 9 days; for power of contextual memory (correct responses−interfering responses): carrier −28%
Description: The effects of 4-{3-[cis-hexahydrocyclopenta[c]pyrrol-2(1H)-yl]propoxy}benzamide and donepezil (both in the form of a hydrochloride), administered on their own or in combination, were studied using a contextual serial discrimination test in the middle-aged (14-15 months old) C57B16 mouse (n=12 per group) (Célérier et al., Learn Mem., 2004, 11(2), 196-204; Tronche et al., Behav. Brain Res., 2010, 215(2): 255-60). […] This model is relevant for evaluating the effects of products in Alzheimer's disease because patients suffering from that form of dementia also have disturbances of contextual episodic memory, this being the case from a very early stage (Gold and Budson, Expert Rev Neurother., 2008, 8(12): 1879-1891).
The mice, placed in a box with raised edges, learn two types of consecutive spatial discrimination (D1: white floor, then D2: black floor) on a floor with four holes, in which just one of the holes is baited, the arrangement being opposite in D1 and in D2 (see FIG. 1). Each discrimination is performed on a specific floor (black or white), which constitutes the internal context specific to each discrimination. 24 hours after the learning step, the mice are returned to the white contextual floor, and the following are measured: • the percentage of correct responses (i.e. % of lowering the head into the hole that was baited during the learning exercise on the white floor), • the percentage of interfering responses (i.e. % of lowering the head into the hole that was baited during the learning exercise on the black floor, the last context presented to the mice), • and the percentage of errors (i.e. % of lowering the head into the two holes that were not baited during learning, whether on the white floor or on the black floor (see FIG. 1).
The effects of 4-{3-[cis-hexahydrocyclopenta[c]pyrrol-2(1H)-yl]propoxy}benzamide and rivastigmine (used in the form of a hydrogen tartrate), administered on their own or in combination, were studied using the contextual serial discrimination test in the middle-aged C57B16 mouse described in the Example above.
The effects of 4-{3-[cis-hexahydrocyclopenta[c]pyrrol-2(1H)-yl]propoxy}benzamide and galantamine (used in the form of a hydrobromide), administered on their own or in combination, were also studied using the contextual serial discrimination test in the middle-aged C57B16 mouse.

C57B16 mouse = conditions: administered on its own
Method: The effects, in terms of safety, of 4-{3-[cis-hexahydrocyclopenta[c]pyrrol-2(1H)-yl]propoxy}-benzamide and donepezil (both in the form of a hydrochloride), administered on their own or in association, were studied using Irwin's primary observation test in the C57B16 mouse (n=4 individuals per group).
Behavioural changes, physiological and neurotoxic symptoms, rectal temperature and pupil diameter were recorded using a standardised observation grid derived from that of Irwin.

NC(=O)c1ccc(OCCCN2C[C@H]3CCC[C@H]3C2)cc1 [4-{3-[cis-hexahydrocyclopenta[c]pyrrol-2(1H)-yl]propoxy}benzamide]
increase in the level of correct responses compared to the carrier ([1]; Example A, FIG. 2, 0.3 mg/kg of base per os): more than 60% | increase in the level of correct responses compared to the carrier ([1]; Example A, FIG. 2, 1 mg/kg of base per os): more than 60% | power of contextual memory (correct responses−interfering responses) ([1]; Example B, FIG. 4, 0.3 mg/kg of base per os): +6% | power of contextual memory (correct responses−interfering responses) ([1]; Example B, FIG. 4, 1 mg/kg of base per os): +10% | power of contextual memory (correct responses−interfering responses) ([1]; Example C, FIG. 5, 0.3 mg/kg of base per os): −3% | power of contextual memory (correct responses−interfering responses) ([1]; Example C, FIG. 5, 1 mg/kg of base per os): +9% | observable changes in Irwin's test (C57B16 mouse; 0.3 and 1 mg/kg of base per os): no observable changes

COc1cc2c(cc1OC)C(=O)C(CC1CCN(Cc3ccccc3)CC1)C2 (stereo not drawn) [donepezil hydrochloride, donepezil]
percentage of correct responses compared to the carrier ([1]; Example A, FIG. 2, donepezil hydrochloride 0.1 mg/kg of base per os, tested 24 hours after learning): no significant improvement | observable changes in Irwin's test (C57B16 mouse; donepezil 1 mg/kg of base per os (strongest dose)): reduces reactivity to touch and causes slight sedation | observable changes in Irwin's test (C57B16 mouse; donepezil 0.1 and 0.3 mg/kg of base per os): no observable changes

COc1ccc2c3c1O[C@H]1C[C@@H](O)C=C[C@@]31CCN(C)C2 [galantamine, reference compound]
power of contextual memory (correct responses−interfering responses) ([1]; Example C, FIG. 5, galantamine 0.3 mg/kg of base per os): −18%

CCN(C)C(=O)Oc1cccc([C@H](C)N(C)C)c1 [rivastigmine, reference compound]
power of contextual memory (correct responses−interfering responses) ([1]; Example B, FIG. 4, rivastigmine 0.1 mg/kg of base per os): −9%
